Data from publication PMC12266748, “A Xanthine Derivative With Novel Heat Shock Protein 90‐Alpha Inhibitory and Senolytic Properties” (Aging Cell, 2025).

Assays:
IMR90 cells = assay: Immunofluorescence of Cytochrome C / mitochondria colocalization in senescent IMR90; assay type: cell-based, Homo sapiens; settings: senescent IMR90 (PD21), 48 h, K5 25 μM, Dasatinib 1 μM; Vehicle OR = 0.913
Experimental: Treated/untreated senescent IMR90 and MCF7 cells were fixed, permeabilized, and stained following suppliers' recommendations. Images were acquired using an Olympus IX83 research inverted microscope (IF) and a phase microscopy Nikon ECLIPSE Ei R (IHC) at 40× MAG.
Immunofluorescence staining. Treated/untreated IMR90 and MCF7 cells were cultured in LabTek II chamber slides (Nunc, Biosigma). At the final time point, cells were stained with 500 nM MitoTracker Orange (Thermo Fisher Scientific) for 30 min at 37°C and then fixed in 4% PFA (Merck) for 10 min, RT, and permeabilized with 0.1% Triton solution (Merck) for 30 min at RT. Samples were blocked in 5% BSA for 90 min, incubated overnight at 4°C with primary antibody against Cytochrome C (1:50, RbMAb, Abcam), and 1h at RT with secondary antibody Alexa Fluor 488 goat anti-Rb (1:200, Thermo Fisher Scientific). Nuclei were stained with DAPI (Cell Signaling) for 10 min at RT, and ProLong Glass Antifade Mountant (Thermo Fisher Scientific) was used to seal coverslips. Images were acquired using an Olympus IX83 research inverted microscope at 40X magnifications.

Drosophila melanogaster = Drosophila melanogaster gene expression analysis (qRT-PCR); assay type: in vivo; settings: K5 10 μg/mL
Experimental: Total RNA from Drosophila melanogaster was isolated using a TripleXtractor reagent kit (Grisp Research Solution, Porto, Portugal). Gene expression of Dacapo (Dap), Unpaired 2 (Upd2), Unpaired 3 (Upd3), and Glyceraldehyde‐3‐phosphate dehydrogenase 1 (Gapdh1) was analyzed by qRT‐PCR. Details are reported in the extended methods.

**Q.** `Cc1ccccc1-n1c(=O)n(Cc2ccccc2)c(=O)c2[nH]cnc21` [Compound K5, 1-benzyl-3-(2-methylphenyl)-7H-purine-2,6-dione] was tested. Which “Cytochrome C / mitochondria colocalization, Overlap R (OR)” value (IMR90 cells) did it give?
**A.** 0.454

**Q.** What about the “Dap relative expression vs controls” value (Drosophila melanogaster) of the same compound?
**A.** no significant difference

**Q.** What about the “Upd2 relative expression vs controls” value (Drosophila melanogaster; p < 0.05) of the same compound?
**A.** significantly reduced

**Q.** What about the “Upd3 relative expression vs controls” value (Drosophila melanogaster; p < 0.05) of the same compound?
**A.** significantly reduced
